Active and inactive are the calls of the source.
Tests used:
[1] = cytotoxicity in HEK293 background cells – cell-based, dry powder, set 2, counter-screen for EBV LMP1 inhibitor project, dose response (AID 624374); type: functional
[2] = TNFa-induced NF-kB reporter signal decrease – HEK293 LMP1 reporter cells, dry powder, set 2, selectivity assay for EBV LMP1 NF-kB inhibitor project, dose response (AID 624369); type: functional
[3] = inhibitors of EBV LMP1 NF-kappaB signaling – cell-based, luciferase reporter, luminescence, dry powder, set 2, dose response (AID 624376); type: functional
[4] = LMP1-induced NF-kB luciferase signal inhibition – cell-based, EBV LMP1, dry powder, set 2, dose response (AID 624361); type: functional
Vero = assay: viability loss in Vero cells – cell-based, plate reader, cherry-pick samples, cytotoxicity control, dose response (AID 687020); type: functional; conditions: Chlorocebus sabaeus
[5] = target: Potassium channel subfamily K member 9 (Homo sapiens, UniProt Q9NPC2); assay: KCNK9 flux blockade, concentration-response – cell-based, FluxOR thallium flux, selectivity assay for TASK1 inhibitor project, SAR follow-up (AID 652211); type: functional;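 further: potency is for inhibitors of the channel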
Sequence of Potassium channel subfamily K member 9 (Q9NPC2 whole entry): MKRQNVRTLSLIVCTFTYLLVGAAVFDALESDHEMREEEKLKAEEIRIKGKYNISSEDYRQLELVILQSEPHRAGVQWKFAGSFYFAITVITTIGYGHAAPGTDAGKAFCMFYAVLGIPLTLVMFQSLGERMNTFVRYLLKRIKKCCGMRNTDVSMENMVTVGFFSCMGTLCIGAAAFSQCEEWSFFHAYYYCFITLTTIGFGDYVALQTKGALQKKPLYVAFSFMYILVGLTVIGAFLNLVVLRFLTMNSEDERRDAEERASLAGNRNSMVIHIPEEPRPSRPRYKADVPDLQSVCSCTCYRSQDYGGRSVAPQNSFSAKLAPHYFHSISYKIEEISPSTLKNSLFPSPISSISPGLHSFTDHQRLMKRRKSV

Aminopeptidase N = target: T1, Aminopeptidase N (Plasmodium falciparum FcB1/Columbia, UniProt O96935); assay: malaria alanyl aminopeptidase activity blockers – biochemical, fluorogenic H-Leu-NHMec substrate, 1536-well (AID 1445); set-up: species or system Plasmodium falciparum 3D7, 3D7
T1 sequence (O96935 whole entry): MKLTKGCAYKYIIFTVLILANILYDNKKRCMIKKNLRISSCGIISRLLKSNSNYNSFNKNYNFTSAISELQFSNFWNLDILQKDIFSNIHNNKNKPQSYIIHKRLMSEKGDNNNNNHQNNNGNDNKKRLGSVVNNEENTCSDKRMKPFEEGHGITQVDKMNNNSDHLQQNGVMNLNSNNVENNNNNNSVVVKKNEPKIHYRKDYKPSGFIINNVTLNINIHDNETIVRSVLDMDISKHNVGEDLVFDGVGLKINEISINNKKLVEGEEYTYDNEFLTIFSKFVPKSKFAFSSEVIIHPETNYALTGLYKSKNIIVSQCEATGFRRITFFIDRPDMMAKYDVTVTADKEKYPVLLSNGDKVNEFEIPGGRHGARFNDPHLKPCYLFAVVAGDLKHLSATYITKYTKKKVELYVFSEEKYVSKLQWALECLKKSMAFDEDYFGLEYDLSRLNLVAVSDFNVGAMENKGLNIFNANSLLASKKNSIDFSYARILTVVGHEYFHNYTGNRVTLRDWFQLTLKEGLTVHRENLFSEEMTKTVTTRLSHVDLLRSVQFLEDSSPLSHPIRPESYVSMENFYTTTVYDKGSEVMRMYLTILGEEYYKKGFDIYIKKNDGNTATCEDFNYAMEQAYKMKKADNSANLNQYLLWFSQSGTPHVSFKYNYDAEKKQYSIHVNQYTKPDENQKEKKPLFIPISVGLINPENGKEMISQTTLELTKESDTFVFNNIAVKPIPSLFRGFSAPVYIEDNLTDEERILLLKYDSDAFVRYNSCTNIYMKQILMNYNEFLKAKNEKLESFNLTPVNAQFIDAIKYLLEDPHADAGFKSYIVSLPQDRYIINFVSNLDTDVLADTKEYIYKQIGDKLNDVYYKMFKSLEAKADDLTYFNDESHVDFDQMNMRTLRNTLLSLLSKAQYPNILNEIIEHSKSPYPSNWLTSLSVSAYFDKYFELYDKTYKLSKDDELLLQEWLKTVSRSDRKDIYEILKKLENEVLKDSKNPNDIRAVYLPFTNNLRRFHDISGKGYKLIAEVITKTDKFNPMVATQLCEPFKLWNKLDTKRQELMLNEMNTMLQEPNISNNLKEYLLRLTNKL

[6] = activation of miR-122 Renilla sensor silencing – cell-based, Huh7 psiCHECK-miR122, Renilla luciferase, cherry-picked, dose response (AID 651956); type: functional;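 further: huh7 hepatoma cells stably carrying a psiCHECK-2 miR-122 sensor plasmid; renilla luciferase signal reporting endogenous miR-122 activity after 48 h compound exposure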
[7] = general mammalian cell viability loss – inhibitor set, cherry-pick, set 2, cytotoxicity control for miR-122 modulator project, dose response (AID 720697); type: functional, cell-based
[8] = target: Tyrosine-protein phosphatase non-receptor type 11 (Homo sapiens, UniProt Q06124); assay: PTPN11 enzyme inhibitors – biochemical, selectivity assay for STEP inhibitor project, dose response (AID 602367); type: functional; conditions: read-out: IC50_Mean
Sequence of Tyrosine-protein phosphatase non-receptor type 11 (Q06124 whole entry): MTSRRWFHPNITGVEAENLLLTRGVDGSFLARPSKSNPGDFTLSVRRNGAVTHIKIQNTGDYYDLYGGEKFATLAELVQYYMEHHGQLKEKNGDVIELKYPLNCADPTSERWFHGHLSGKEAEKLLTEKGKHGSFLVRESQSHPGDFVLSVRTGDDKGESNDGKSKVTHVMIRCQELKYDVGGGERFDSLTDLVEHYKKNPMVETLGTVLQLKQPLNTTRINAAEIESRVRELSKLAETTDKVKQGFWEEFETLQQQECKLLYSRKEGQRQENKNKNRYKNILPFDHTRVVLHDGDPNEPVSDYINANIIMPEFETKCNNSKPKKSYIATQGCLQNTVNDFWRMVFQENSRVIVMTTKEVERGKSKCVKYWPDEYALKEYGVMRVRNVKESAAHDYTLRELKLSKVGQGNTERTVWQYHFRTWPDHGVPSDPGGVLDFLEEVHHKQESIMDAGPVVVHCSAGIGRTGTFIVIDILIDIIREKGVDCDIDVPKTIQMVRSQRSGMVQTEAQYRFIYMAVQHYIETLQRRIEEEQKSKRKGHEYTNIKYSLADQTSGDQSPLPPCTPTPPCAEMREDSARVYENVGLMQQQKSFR

[9] = target: Tyrosine-protein phosphatase non-receptor type 5 (Homo sapiens, UniProt P54829); assay: PTPN5 enzyme inhibition – biochemical, fluorescence intensity, uHTS hits, confirmation (AID 602372); type: functional; conditions: read-out: IC50_Mean
Sequence of Tyrosine-protein phosphatase non-receptor type 5 (P54829 whole entry): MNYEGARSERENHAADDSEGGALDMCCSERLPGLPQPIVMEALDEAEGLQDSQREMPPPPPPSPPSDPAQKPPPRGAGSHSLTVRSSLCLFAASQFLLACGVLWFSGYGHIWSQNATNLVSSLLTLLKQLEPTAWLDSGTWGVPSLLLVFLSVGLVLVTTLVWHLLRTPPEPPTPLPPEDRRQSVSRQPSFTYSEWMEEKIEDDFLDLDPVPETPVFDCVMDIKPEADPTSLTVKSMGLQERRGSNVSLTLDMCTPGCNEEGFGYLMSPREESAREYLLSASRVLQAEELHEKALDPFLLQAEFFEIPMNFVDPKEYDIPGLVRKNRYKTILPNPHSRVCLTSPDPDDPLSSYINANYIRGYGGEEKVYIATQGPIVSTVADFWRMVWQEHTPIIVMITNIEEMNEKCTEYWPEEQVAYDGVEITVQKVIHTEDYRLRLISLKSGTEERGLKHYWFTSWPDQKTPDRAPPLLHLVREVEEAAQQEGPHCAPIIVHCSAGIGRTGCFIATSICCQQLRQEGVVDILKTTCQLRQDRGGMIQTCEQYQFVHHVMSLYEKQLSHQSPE

[10] = target: Dual specificity protein phosphatase 3 (Homo sapiens, UniProt P51452); assay: VHR phosphatase inhibition, dose response, selectivity assay for STEP inhibitor project, biochemical (AID 602374); type: functional; conditions: read-out: IC50_Mean
[11] = target: T2, Tyrosine-protein phosphatase non-receptor type 22 (Homo sapiens, UniProt Q9Y2R2); assay: lymphoid phosphatase LYP inhibitors – biochemical, selectivity assay for STEP inhibitor project, dose response (AID 624241); type: functional
T2 sequence (Q9Y2R2 whole entry): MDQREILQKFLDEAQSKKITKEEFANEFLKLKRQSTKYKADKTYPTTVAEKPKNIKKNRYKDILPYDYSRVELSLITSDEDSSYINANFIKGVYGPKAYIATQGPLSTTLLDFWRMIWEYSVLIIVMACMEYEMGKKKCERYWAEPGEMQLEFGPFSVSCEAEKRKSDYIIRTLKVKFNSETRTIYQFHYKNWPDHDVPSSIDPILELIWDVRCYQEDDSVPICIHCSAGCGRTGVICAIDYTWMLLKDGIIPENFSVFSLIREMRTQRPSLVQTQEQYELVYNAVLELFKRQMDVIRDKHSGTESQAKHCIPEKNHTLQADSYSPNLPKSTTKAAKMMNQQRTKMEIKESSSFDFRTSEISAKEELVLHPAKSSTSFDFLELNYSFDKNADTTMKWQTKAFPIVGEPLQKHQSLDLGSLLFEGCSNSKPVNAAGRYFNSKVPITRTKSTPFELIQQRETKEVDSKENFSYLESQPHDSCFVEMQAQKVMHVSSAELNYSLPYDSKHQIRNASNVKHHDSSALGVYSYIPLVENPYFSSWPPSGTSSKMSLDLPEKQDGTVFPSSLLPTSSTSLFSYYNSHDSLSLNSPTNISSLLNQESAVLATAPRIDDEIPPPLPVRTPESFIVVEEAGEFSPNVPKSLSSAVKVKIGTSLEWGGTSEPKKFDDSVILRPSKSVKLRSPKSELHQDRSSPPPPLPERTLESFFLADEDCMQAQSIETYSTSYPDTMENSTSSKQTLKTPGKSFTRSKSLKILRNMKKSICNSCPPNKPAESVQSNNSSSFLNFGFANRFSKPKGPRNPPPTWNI

[12] = target: Glucose-6-phosphate 1-dehydrogenase (Homo sapiens, UniProt P11413); assay: inhibition of Homo sapiens G6PD, dose series – biochemical, fluorescence, selectivity assay for P. falciparum G6PD inhibitor project, dose response (AID 504792); type: functional
Sequence of Glucose-6-phosphate 1-dehydrogenase (P11413 whole entry): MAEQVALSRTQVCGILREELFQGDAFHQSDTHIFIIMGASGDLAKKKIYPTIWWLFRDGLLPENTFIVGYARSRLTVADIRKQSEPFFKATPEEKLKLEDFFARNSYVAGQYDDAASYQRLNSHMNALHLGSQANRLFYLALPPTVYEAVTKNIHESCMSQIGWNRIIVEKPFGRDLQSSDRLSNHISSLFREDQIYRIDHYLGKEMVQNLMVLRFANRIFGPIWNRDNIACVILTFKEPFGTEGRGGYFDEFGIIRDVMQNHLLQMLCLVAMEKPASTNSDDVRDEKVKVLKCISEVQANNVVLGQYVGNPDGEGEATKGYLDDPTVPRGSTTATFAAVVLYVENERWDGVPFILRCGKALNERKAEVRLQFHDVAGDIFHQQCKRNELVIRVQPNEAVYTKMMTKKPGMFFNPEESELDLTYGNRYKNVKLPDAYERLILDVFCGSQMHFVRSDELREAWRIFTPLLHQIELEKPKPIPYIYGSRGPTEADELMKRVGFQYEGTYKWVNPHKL

[13] = viability loss in HeLa cells – cytotoxicity control for MgcRacGAP inhibitor project, dose response (AID 624300); type: functional
Beta-lactamase [14] = target: Beta-lactamase (Salmonella choleraesuis (strain SC-B67), UniProt Q5J463); assay: Epi-absorbance-based counterscreen for selective VIM-2 inhibitors: dose response biochemical high throughput screening assay to identify inhibitors of TEM-1 serine-beta-lactamase.
Sequence of Beta-lactamase (Salmonella choleraesuis (strain SC-B67), UniProt Q5J463) (Q5J463 whole entry): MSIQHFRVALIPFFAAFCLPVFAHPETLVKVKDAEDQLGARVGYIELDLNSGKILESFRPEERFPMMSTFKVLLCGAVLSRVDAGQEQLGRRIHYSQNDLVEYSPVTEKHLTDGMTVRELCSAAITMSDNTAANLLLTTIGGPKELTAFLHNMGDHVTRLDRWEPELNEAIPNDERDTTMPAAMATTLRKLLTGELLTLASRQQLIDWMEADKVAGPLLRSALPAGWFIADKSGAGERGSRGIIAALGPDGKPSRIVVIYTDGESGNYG

Beta-lactamase [15] = target: T3, Beta-lactamase (Pseudomonas aeruginosa, UniProt Q79MP6); assay: inhibition of IMP-1 beta-lactamase activity – biochemical, epi-absorbance, selectivity assay for VIM-2 inhibitor project, dose response (AID 1920)
T3 sequence (Q79MP6 whole entry): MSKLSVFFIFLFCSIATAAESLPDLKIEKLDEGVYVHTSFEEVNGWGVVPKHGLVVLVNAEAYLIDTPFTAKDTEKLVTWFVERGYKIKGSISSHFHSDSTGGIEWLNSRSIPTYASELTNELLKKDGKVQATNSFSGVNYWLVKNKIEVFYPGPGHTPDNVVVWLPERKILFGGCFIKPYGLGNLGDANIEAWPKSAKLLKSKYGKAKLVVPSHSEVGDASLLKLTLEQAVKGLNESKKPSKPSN

Beta-lactamase [16] = target: T3, Beta-lactamase; assay: […] counterscreen for selective VIM-2 inhibitors: dose response biochemical high throughput screening assay to identify inhibitors of IMP-1 metallo-beta-lactamase.
[17] = HEK-293T cell viability reduction – luminescence, B-cell screen hits, cytotoxicity control for BCR NF-kB inhibitor project, dose response (AID 489021); type: functional, cell-based;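 further: HEK-293T cells carrying an NF-kB luciferase reporter; cells exposed to compound for about 14 hours before viability readout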
INS1 = assay: INS-1E survival protection against cytokine death – cell-based, luminescence, retest, dose response (AID 449756); type: functional; conditions: Rattus norvegicus;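 further: cell death triggered by IL-1 beta plus TNF-alpha plus IFN-gamma mixture; protective hits raise ATP signal compared with cytokine alone wells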
[18] = blockers of HIV-1 envelope-mediated cell-cell fusion – cherry-pick, dose response (AID 652057); type: functional, cell-based
[19] = viability loss in CEM21 cells – cell-based, CellTiter-Glo luminescence, cherry-picked, cytotoxicity control for viral fusion inhibitor project, dose response (AID 652042); type: functional;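 further: potency for signal decrease meaning cytotoxicity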
[20] = blockers of HIV-1 ZM109 envelope-driven cell-cell fusion – HeLa effector, CEM target cells, luciferase, cherry-pick, dose response (AID 652058); type: functional, cell-based;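 further: luciferase signal from HIV-1 Env mediated cell-cell fusion of effector and target cells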
[21] = off-target signal loss in HeLa-CEM21 co-culture – HeLa F-luc CTL cells, cherry-picked, counter-screen for HIV-1 Env fusion inhibitor project, dose response (AID 652040); type: functional, cell-based;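 further: potency for signal decrease marking cytotoxic or nonspecific inhibition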
[22] = HIV-1 AD8 envelope cell-cell fusion blockers – cherry-pick, dose response (AID 652062); type: functional, cell-based;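 further: luciferase signal from cell-cell fusion driven by HIV-1 clade B AD8 Env; potency is for inhibitors of fusion seen as a drop in luminescence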
[23] = A549 cell cytotoxicity, dose response, cytotoxicity control, plate reader, cherry-pick, antagonist series (AID 743412); type: functional, cell-based
[24] = toxicity toward HepG2 liver cells – cell-based, plate reader, cherry-pick, antagonist series, cytotoxicity control, dose response (AID 743416); type: functional
[25] = blockers of bursicon-stimulated LGR2 cAMP reporter – cell-based, HEK293, CRE-luciferase reporter, cherry pick, set 2, dose response (AID 743343); type: functional;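 further: transfected cells were stimulated with diluted bursicon conditioned medium after compound addition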
[26] = blockade of melanocortin 4 receptor signaling – cell-based, plate reader, cherry pick, counter-screen for LGR2 antagonist project, dose response (AID 743444); type: functional;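 further: transfected HEK 293 cells stimulated with alpha-MSH peptide; potency of inhibitors of the alpha-MSH evoked signal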
[27] = viability loss in HEK293 cells – cell-based, plate reader, cherry-picked samples, cytotoxicity control, dose response (AID 743446); type: functional
[28] = target: Fructose-bisphosphate aldolase (Mycobacterium tuberculosis, UniProt P9WQA3); assay: Fluorescence-based biochemical high throughput dose response assay for inhibitors of the fructose-bisphosphate aldolase (FBA) of M. tuberculosis.; type: functional
Sequence of Fructose-bisphosphate aldolase (P9WQA3 whole entry): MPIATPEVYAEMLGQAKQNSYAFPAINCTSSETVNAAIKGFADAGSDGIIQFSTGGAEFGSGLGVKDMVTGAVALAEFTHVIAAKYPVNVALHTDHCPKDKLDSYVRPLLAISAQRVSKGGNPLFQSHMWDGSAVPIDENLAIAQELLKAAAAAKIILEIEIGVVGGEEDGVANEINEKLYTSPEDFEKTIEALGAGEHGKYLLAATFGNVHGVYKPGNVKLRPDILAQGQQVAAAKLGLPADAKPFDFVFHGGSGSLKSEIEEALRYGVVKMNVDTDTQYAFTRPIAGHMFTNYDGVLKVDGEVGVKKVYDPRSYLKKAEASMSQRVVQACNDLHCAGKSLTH

A549 = assay: viability loss in A549 cells – cell-based, plate reader, cherry-pick samples, cytotoxicity control, dose response (AID 687028); type: functional; conditions: Homo sapiens
[29] = target: SWI/SNF-related matrix-associated actin-dependent regulator of chromatin subfamily A member 2 (Homo sapiens, UniProt P51531); assay: Luminescence-based cell-based high throughput dose response assay to identify activators of the function of SWI/SNF related, matrix associated, actin dependent regulator of chromatin, subfamily a, member 2 (SMARCA2, BRM).; type: functional
Sequence of SWI/SNF-related matrix-associated actin-dependent regulator of chromatin subfamily A member 2 (P51531 whole entry): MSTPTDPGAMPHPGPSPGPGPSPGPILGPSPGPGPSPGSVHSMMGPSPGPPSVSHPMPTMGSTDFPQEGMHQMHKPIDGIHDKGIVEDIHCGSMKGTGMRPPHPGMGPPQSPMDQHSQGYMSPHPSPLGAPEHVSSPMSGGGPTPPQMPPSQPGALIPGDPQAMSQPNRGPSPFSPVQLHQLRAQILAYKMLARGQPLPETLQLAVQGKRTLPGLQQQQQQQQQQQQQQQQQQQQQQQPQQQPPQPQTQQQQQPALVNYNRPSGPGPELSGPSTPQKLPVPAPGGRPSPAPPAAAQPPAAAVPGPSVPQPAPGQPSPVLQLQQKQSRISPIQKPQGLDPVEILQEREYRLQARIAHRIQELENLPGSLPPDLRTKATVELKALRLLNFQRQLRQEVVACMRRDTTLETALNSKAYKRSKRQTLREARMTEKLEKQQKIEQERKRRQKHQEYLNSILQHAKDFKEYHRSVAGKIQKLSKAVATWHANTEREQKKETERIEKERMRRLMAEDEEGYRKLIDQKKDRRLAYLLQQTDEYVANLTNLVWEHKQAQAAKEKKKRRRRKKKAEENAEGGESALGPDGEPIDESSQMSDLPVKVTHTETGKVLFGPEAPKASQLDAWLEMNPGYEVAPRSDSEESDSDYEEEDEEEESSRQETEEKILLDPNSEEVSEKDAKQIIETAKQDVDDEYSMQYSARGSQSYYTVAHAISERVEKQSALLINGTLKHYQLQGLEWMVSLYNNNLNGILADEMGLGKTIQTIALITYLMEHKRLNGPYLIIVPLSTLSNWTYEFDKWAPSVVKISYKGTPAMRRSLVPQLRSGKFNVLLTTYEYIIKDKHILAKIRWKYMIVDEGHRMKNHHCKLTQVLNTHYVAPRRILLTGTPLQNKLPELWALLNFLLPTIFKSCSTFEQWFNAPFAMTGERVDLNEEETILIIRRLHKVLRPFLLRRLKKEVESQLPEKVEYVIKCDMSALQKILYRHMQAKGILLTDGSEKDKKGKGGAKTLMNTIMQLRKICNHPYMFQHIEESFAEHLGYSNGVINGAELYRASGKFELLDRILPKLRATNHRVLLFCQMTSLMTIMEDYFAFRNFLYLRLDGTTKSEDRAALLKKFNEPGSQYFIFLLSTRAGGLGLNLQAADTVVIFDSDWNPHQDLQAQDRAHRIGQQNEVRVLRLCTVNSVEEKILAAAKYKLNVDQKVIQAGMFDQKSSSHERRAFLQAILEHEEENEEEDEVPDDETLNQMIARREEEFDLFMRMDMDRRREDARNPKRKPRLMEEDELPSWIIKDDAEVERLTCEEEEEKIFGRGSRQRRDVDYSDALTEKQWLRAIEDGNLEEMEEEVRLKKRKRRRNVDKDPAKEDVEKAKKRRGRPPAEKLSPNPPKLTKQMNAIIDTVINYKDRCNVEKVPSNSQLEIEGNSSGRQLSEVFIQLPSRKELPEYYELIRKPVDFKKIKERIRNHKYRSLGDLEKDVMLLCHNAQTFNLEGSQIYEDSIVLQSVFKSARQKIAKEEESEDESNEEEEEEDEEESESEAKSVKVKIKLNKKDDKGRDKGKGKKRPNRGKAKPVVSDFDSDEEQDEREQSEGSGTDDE

[30] = Counterscreen for activators of the function of SWI/SNF related, matrix associated, actin dependent regulator of chromatin, subfamily a, member 2 (SMARCA2, BRM): Luminescence-based cell-based high throughput dose response assay to identify non-selective compounds using the VP16 reporter assay.; type: functional
Paired box protein Pax-8 = Paired box protein Pax-8 (Homo sapiens, UniProt Q06710); assay: PAX8 transcriptional activity inhibition in RMG-I – RMG-I cells, luciferase, cherry-pick, dose response (AID 687027); type: functional, cell-based;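 further: luciferase reporter driven by Pax8 target thyroperoxidase promoter measured by SteadyGlo luminescence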
Sequence of Paired box protein Pax-8 (Q06710 whole entry): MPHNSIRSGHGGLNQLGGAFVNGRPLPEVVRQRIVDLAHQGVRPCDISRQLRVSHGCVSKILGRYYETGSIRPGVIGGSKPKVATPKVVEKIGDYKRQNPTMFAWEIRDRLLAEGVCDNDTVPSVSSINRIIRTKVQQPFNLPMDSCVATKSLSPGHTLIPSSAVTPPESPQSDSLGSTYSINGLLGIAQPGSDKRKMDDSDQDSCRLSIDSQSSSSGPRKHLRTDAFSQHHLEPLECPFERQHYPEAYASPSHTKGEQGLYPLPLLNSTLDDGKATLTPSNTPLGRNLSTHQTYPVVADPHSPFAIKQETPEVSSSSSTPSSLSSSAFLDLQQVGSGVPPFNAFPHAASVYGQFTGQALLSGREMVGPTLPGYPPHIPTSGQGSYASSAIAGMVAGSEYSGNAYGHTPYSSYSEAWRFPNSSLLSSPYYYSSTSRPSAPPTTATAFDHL

SMILES: C[C@@H]1CN([C@@H](C)CO)C(=O)c2c(c3ccccc3n2C)-c2ccccc2CO[C@H]1CN(C)C(=O)Nc1ccc(F)cc1
- AbsAC35 [1]: 204.77 µM

SMILES: CC(C)NC(=O)N1[C@H](CO)[C@H](c2ccc(C#CC3CCCCC3)cc2)[C@@H]1C#N
- AbsAC35 [2]: 202.7 µM
- AbsAC35 [3]: 62.28 µM
- AbsAC35 [4]: 53.56 µM

SMILES: CCCCC[C@H]1CN(CCc2ccccc2)C(=O)[C@@H]1CC(=O)NCc1ccc(OC)cc1
- AC50 (Vero): 33.9 µM (active)

SMILES: Cc1cccc(C(=O)Nc2cccc(NC(=O)c3ccccc3Cl)c2)c1
- IC50 [5]: 19.8 µM (active)

SMILES: Cc1cc(NS(=O)(=O)c2ccc(NC(=O)C(CC(C)C)N3C(=O)c4ccccc4C3=O)cc2)nc(C)n1 (stereo not given)
- IC50 (Aminopeptidase N): 38 µM (active)
- AC50 [6]: 49.8 µM (active)
- AC50 [7]: 8.51 µM (active)

SMILES: SC1=NC2=C(CCCC2=C2SCCS2)C(c2ccccc2)N1 (stereo not given)
- IC50 [8]: 5.27 µM (active)
- IC50 [9]: 22.6 µM (inactive)
- IC50 [10]: 1.23 µM (active)
- IC50 [11]: > 100 µM (inactive)

SMILES: O=[N+]([O-])c1cnc(Sc2ccncn2)c([N+](=O)[O-])c1
- IC50 [12]: > 80 µM (inactive)
- CC50 [13]: 34.1 µM (active)

SMILES: O=C(CSc1nnc(NC(=O)C2CC2)s1)NCc1ccccc1Cl
- IC50 (Beta-lactamase [14]): > 59.6 µM (inactive)
- IC50 (Beta-lactamase [15]): > 59.6 µM (inactive)
- IC50 (Beta-lactamase [16]): > 59.6 µM (inactive)

SMILES: CC(C)CN(C(=O)COC(=O)C12CC3CC(CC(C3)C1)C2)c1c(N)n(Cc2ccccc2)c(=O)[nH]c1=O
- IC50 [17]: > 80 µM (inactive)
- AC50 (INS1): 3.62 µM (active)
- AC50 [18]: 9.69 µM (active)
- AC50 [19]: 13.1 µM (active)
- AC50 [20]: 11.4 µM (active)
- AC50 [21]: 17 µM (active)
- AC50 [22]: 18.3 µM (active)
- AC50 [23]: 8.64 µM (active)
- AC50 [24]: 13.7 µM (active)
- AC50 [25]: 43.8 µM (active)
- AC50 [26]: 30.2 µM (active)
- AC50 [27]: 16.6 µM (active)

SMILES: CC(=O)NN1C(=O)c2ccccc2NC1c1ccccn1 (stereo not given)
- IC50 [28]: 3.49 µM (active)

SMILES: CC1(C(=O)NCc2cccs2)Cc2c(-c3cccc(C(F)(F)F)c3)ccnc2O1 (stereo not given)
- AC50 (A549): 17.6 µM (active)

SMILES: CN(C)c1ncnc2c1nnn2C1OC(CO)C(O)C1O (stereo not given)
- EC50 [29]: > 91.2 µM (inactive)
- EC50 [30]: > 91.2 µM (inactive)
- AC50 (Paired box protein Pax-8): < 0.26 µM (active)

From ChEMBL document CHEMBL1201862, “PubChem BioAssay data set” (2004)
